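Five compound concentrations were applied to cells in 96-well plates for 48 hours; endpoints were derived by simple linear interpolation of the resulting dose-response curve. GI50: concentration for 50% inhibition of growth.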 Active and inactive are the calls of the source. Cut-off read from the data, not from the text of the source: active = GI50 up to about 1.1 µM and inactive = higher.
Experiments:
Experiment in all cases: NCI tumour cell line growth inhibition, 48 h
[1] = test system: DMS-114
[2] = test system: DMS-273
[3] = test system: RXF 631
[4] = test system: M19-MEL
[5] = test system: DLD-1
[6] = test system: XF498
[7] = test system: HOP-18
[8] = test system: SNB-78
[9] = test system: KM-20L2

Measured: GI50

COc1ccc(O)cc1C=O
inactive: [1] 32.8 µM | [2] 87.9 µM | [3] > 100 µM | [4] 77.1 µM | [5] > 100 µM | [6] 99.1 µM | [7] > 100 µM | [8] > 100 µM | [9] > 100 µM

C[C@]12CCC(=O)C[C@H]1CCC(O)[C@@H]2Br (stereo partly drawn)
inactive: [1] > 100 µM | [2] > 100 µM | [3] > 100 µM | [4] > 100 µM | [5] > 100 µM | [6] > 100 µM | [7] > 100 µM | [9] > 100 µM

Cc1c(-c2nnc(-c3ccc(Cl)cc3)o2)c(=O)n(-c2ccccc2)n1C
inactive: [1] > 100 µM | [2] > 100 µM | [4] > 100 µM | [5] > 100 µM | [6] > 100 µM | [7] > 100 µM | [8] > 100 µM | [9] > 100 µM

Oc1c2c(nc3cc4c(cc13)OCO4)-c1ccccc1CC2
inactive: [1] > 100 µM | [2] > 100 µM | [3] > 100 µM | [4] > 100 µM | [5] > 100 µM | [6] > 100 µM | [9] > 100 µM

CN(C)c1ccc(/C=C(\C#N)C(=O)c2ccccc2)cc1Br
inactive: [1] > 100 µM | [2] > 100 µM | [3] > 100 µM | [5] 67.5 µM | [6] > 100 µM | [7] > 100 µM | [8] > 100 µM | [9] > 100 µM

N/N=C1\c2ccccc2C2/C(=N\N)c3ccccc3C12 (stereo not drawn)
inactive: [1] > 100 µM | [2] > 100 µM | [4] > 100 µM | [5] > 100 µM | [7] 57.4 µM | [9] > 100 µM

Cn1ncnc1CCc1ccccc1
inactive: [1] > 100 µM | [2] > 100 µM | [4] > 100 µM | [7] > 100 µM | [8] > 100 µM | [9] > 100 µM

COC(=O)C(=O)C(C(=O)C=C(C)C)C(=O)C(=O)Nc1ccc(Cl)cc1C (stereo not drawn)
inactive: [1] 92 µM | [2] 35.6 µM | [3] > 100 µM | [4] > 100 µM | [5] > 100 µM | [7] > 100 µM | [9] > 100 µM

O=C1[C@H]2ON(c3ccccc3)C(c3ccccc3Cl)[C@H]2C(=O)N1c1ccc(Cc2ccc(N3C(=O)[C@@H]4ON(c5ccccc5)C(c5ccccc5Cl)[C@@H]4C3=O)cc2)cc1 (stereo partly drawn)
inactive: [1] > 100 µM | [2] > 100 µM | [4] > 100 µM | [5] > 100 µM | [7] > 100 µM | [8] > 100 µM | [9] > 100 µM

N#CCCN(CCC#N)c1ccc(/C=C2\N=C(COc3ccc(Cl)cc3Cl)OC2=O)cc1
inactive: [1] > 100 µM | [2] > 100 µM | [3] > 100 µM | [4] > 100 µM | [5] > 100 µM | [6] > 100 µM | [8] > 100 µM | [9] > 100 µM

N=C(c1ccccc1)N1CCCCC1
inactive: [1] > 100 µM | [2] > 100 µM | [4] > 100 µM | [5] > 100 µM | [7] > 100 µM | [8] > 100 µM | [9] > 100 µM

C[C@@H]1C[C@]2(C[C@@H](C)C3[C@@H](CC4(C)[C@@H]5CCC6C(C)(C)OC(=O)C=C[C@]67C[C@@]5(CC[C@]34C)OO7)O2)OC1=O (stereo partly drawn)
inactive: [1] > 100 µM | [2] > 100 µM | [5] 52.7 µM | [6] 17.6 µM | [7] > 100 µM | [8] 52.5 µM

CCCCCC/C=C1\CCC(CN2CCCC2)C1=O (stereo not drawn)
inactive: [1] 13.8 µM | [2] 12.7 µM | [3] 20.1 µM | [4] 11.4 µM | [5] 5.21 µM | [6] 17.4 µM | [7] 18.7 µM | [8] 26 µM | [9] 20.5 µM

COc1cc(Nc2cnc3ccc(N)cc3n2)cc(OC)c1OC
inactive: [1] 79.3 µM | [2] > 85.3 µM | [3] > 100 µM | [4] > 84.1 µM | [6] 11 µM | [7] 39.4 µM | [8] > 100 µM | [9] 56.6 µM

O=C(CCN1CCCCC1CCO)Nc1ccc2c(c1)C(=O)c1ccc(NC(=O)CCN3CCCCC3CCO)cc1C2=O (stereo not drawn)
inactive: [1] 4.08 µM | [2] 2.83 µM | [4] 26.4 µM | [5] 2.19 µM | [7] 2.25 µM | [8] 3.2 µM | [9] 20.1 µM

O=C1c2c(c3c4ccccc4[nH]c3c3[nH]c4ccccc4c23)C(=O)N1Cc1ccccc1
inactive: [1] 2.82 µM | [2] 2.74 µM | [3] 2.32 µM | [4] 3.64 µM | [5] 3.64 µM | [6] 2 µM | [8] 3.06 µM | [9] 2.94 µM

COC(=O)CC[C@]12C[C@]13CC[C@]1(C)C4C(C)C[C@]5(CC(C)C(=O)O5)OC4CC1(C)C3CCC2C(C)(C)O (stereo partly drawn)
inactive: [1] 59.7 µM | [2] 32.7 µM | [4] 48 µM | [5] 51.8 µM | [6] 58.6 µM | [7] > 100 µM | [8] 89.9 µM | [9] > 100 µM

CC(C)(C)c1ccccc1NS(=O)(=O)c1ccccc1
inactive: [1] 49.9 µM | [2] > 100 µM | [3] > 100 µM | [4] > 100 µM | [6] > 100 µM | [8] > 100 µM | [9] 94 µM

Nc1nc(-c2ccco2)cc(-c2ccco2)n1
inactive: [1] > 100 µM | [2] 5.14 µM | [4] > 100 µM | [6] > 100 µM | [9] > 100 µM

C/C=C(/CCC1NCCC2c3ccccc3NC12)[Si](C)(C)C (stereo not drawn)
inactive: [1] 4.53 µM | [2] 8.55 µM | [3] 10.4 µM | [4] 12 µM | [5] 5.16 µM | [6] 3.15 µM | [7] 13.7 µM | [8] 11.6 µM | [9] 4.62 µM

CN(C)c1nnnn1-c1c(N)n(C)c(=O)n(C)c1=O
inactive: [1] > 100 µM | [2] > 100 µM | [3] > 100 µM | [4] > 100 µM | [5] > 100 µM | [6] > 100 µM | [7] > 100 µM | [8] > 100 µM | [9] > 100 µM

COC1=C(C)C(=O)c2c(cc3c(c2O)C(C)(CCC=C(C)C)C(C)O3)C1=O (stereo not drawn)
inactive: [1] > 100 µM | [2] > 57.1 µM | [4] 10.1 µM | [5] > 100 µM | [6] > 100 µM | [7] > 48.2 µM | [8] > 100 µM | [9] > 100 µM

CCOc1ccccc1/N=N/c1ccc2oc(=O)c(C(=O)Nc3cccc(C)c3)cc2c1
inactive: [1] 23.1 µM | [2] 34.3 µM | [3] 34.5 µM | [4] 27 µM | [5] 24.2 µM | [6] 34.6 µM | [8] 24.5 µM | [9] 43.5 µM

Source: ChEMBL document CHEMBL1201862, “PubChem BioAssay data set” (2004)
